# Results: publication PMC4491109, “Synthesis and anticonvulsant activity of new N-phenyl-2-(4-phenylpiperazin-1-yl)acetamide derivatives” (Medicinal Chemistry Research, 2015)
# Read-outs that look alike come from different tables or passages of the source.
# How the values were obtained:
# Type in all cases: in vivo
# [1] = test system: pentylenetetrazole-induced seizures; assay: Subcutaneous pentylenetetrazole (scPTZ) test, i.p. administration in mice; conditions: Mus musculus, ip, doses of 30, 100 or 300 mg/kg
# Description: (§1) Considering the aforementioned facts, the profile of anticonvulsant activity of final compounds 3–24 was established in the MES and scPTZ tests, after intraperitoneal (i.p.) injection in mice at doses of 30, 100 and 300 mg/kg. An observation was carried out at two different time intervals—0.5 and 4 h. Furthermore, in addition to the primary anticonvulsant screening, the acute neurological toxicity (NT) was determined in mice by the rotarod test.
# (§2) Compounds 3–24 were pharmacologically preevaluated within the Antiepileptic Drug Development (ADD) Program in Epilepsy Branch, Neurological Disorders Program, National Institute of the Neurological and Communicative Disorders and Stroke (NIH/NINDS), Rockville, MD, USA, by using procedures described elsewhere (Krall et al., [1978]; Kupferberg, [1989]).
# (§3) Phase I of the in vivo studies involved three tests: MES, scPTZ and rotarod test for NT. Male albino mice (CF#1 strain, weighing 18–25 g) and male albino rats (Sprague–Dawley) were used as experimental animals. The animals were housed in metabolic cages and allowed free access to food and water. The compounds were injected intraperitoneally to mice as a suspension in 0.5 % methylcellulose/water mixture at a dose level 30, 100 or 300 mg/kg with anticonvulsant activity and neurotoxicity assessment at 0.5 and 4 h after administration. Promising derivatives from phase I underwent phase VIa in which they were administrated orally into rats at a fixed dose of 30 mg/kg for both MES and the rotarod toxicity determination at five pretreatment times: 0.25, 0.5, 1, 2, 4 h. Groups of eight mice or four rats are employed.
# The scPTZ test utilizes a dose of pentylenetetrazole (85 mg/kg in mice) that produces clonic seizures lasting for a period of at least 5 s in 97 % (CD97) of animals tested. PTZ is administered 0.5 and 4 h after injections of tested compounds, and observation is carried out for 30 min. In the control groups, the first episode of clonic convulsions is observed between 6 and 15 min of observation. The absence of clonic convulsions in the observed time period of […] is interpreted as the compound’s ability to protect against PTZ-induced seizures.
# [2] = test system: maximal electroshock (MES) seizures; assay: Maximal electroshock (MES) test, i.p. administration in mice; conditions: Mus musculus, ip, doses of 30, 100 or 300 mg/kg
# Description: as §1, §2, §3
# In the MES screen, an electrical stimulus of 0.2 s in duration (50 mA in mice and 150 mA in rats) is delivered via corneal electrodes primed with an electrolyte solution containing an anesthetic agent. The endpoint is the tonic extension of the hind limbs. In the control groups, the procedures cause immediate hind limb tonic extension. Mice not displaying hind limb tonic extension are considered to be protected from seizures.
# [3] = test system: 6-Hz psychomotor seizures; assay: Psychomotor seizure test (6-Hz), i.p. in mice; conditions: 100 mg/kg; for 6-Hz, number of mice protected/number of mice tested, 0.25 h / 6-Hz, number of mice protected/number of mice tested, 0.5 h / 6-Hz, number of mice protected/number of mice tested, 1 h / 6-Hz, number of mice protected/number of mice tested, 2 h / 6-Hz, number of mice protected/number of mice tested, 4 h: current 32 mA
# Excerpt: In the next step of pharmacological investigations, four compounds 12, 19, 20 and 24 were chosen for the evaluation of anticonvulsant activity in the psychomotor 6-Hz test (Table 4). The selection was made randomly as a part of the search of molecules providing anti-6-Hz protection among chemically diversified compounds pursued in the NIH/NINDS. It should be noticed that 6-Hz screen has been validated as a model of therapy-resistant epilepsy (Barton et al., [2001]).
# The 6-Hz model is an alternative electroshock paradigm that uses low-frequency (6 Hz), long-duration (3 s) electrical stimulation. Corneal stimulation (0.2 ms duration monopolar rectangular pulses at 6-Hz for 3 s) was delivered by a constant-current device. During the stimulation, mice were manually restrained and released into the observation cage immediately after the current application. The seizures manifest in “stunned” posture associated with rearing, forelimb, automatic movements and clonus, twitching the vibrissae and Straub–tail. The duration of the seizure activity ranges from 60 to 120 s in untreated animals. At the end of the seizure, animals resume their normal exploratory behavior. The experimental end point is protection against the seizure. The animal is considered to be protected if it resumes its normal exploratory behavior within 10 s from the stimulation (Brown et al., [1953]).
# mice (rotarod test) = assay: Neurotoxicity screening (NT), rotarod test, i.p. administration in mice; conditions: for dose showing neurotoxicity in the rotarod test (NT): ip
# Description: as §1, §3
# The neurological toxicity test (NT) induced by a compound was detected in mice or rats using standardized rotarod test (Dunham and Miya, [1957]). Untreated control mice or rats, when placed on the rod, can maintained their equilibrium for a prolonged time period.
# [4] = 0.5 h, read-out: scPTZ, minimum dose effective in half or more animals tested, 0.5 h
# [5] = 4 h, read-out: scPTZ, minimum dose effective in half or more animals tested, 4 h
# [6] = 0.5 h, read-out: MES, minimum dose effective in half or more animals tested, 0.5 h
# [7] = 4 h, read-out: MES, minimum dose effective in half or more animals tested, 4 h
SMILES,"minimal effective dose [1, 4]","minimal effective dose [1, 5]","minimal effective dose [2, 6]","minimal effective dose [2, 7]","6-Hz, % of animals protected, 0.25 h ([3]; 0.25 h)","6-Hz, % of animals protected, 0.5 h ([3]; 0.5 h)","6-Hz, % of animals protected, 1 h ([3]; 1 h)","6-Hz, number of mice protected/number of mice tested, 0.25 h ([3]; 0.25 h)","6-Hz, number of mice protected/number of mice tested, 0.5 h ([3]; 0.5 h)","6-Hz, number of mice protected/number of mice tested, 1 h ([3]; 1 h)","6-Hz, number of mice protected/number of mice tested, 2 h [3]","6-Hz, number of mice protected/number of mice tested, 4 h ([3]; 4 h)","NT (rotarod), minimum dose neurotoxic in half or more animals tested, 0.5 h (mice (rotarod test); male, CF#1, mouse, in vivo)","dose showing neurotoxicity in the rotarod test (NT) (mice (rotarod test); male, CF#1, mouse, in vivo)","6-Hz, % of animals protected, 4 h ([3]; 4 h)","NT (rotarod), minimum dose neurotoxic in half or more animals tested, 4 h (mice (rotarod test); male, CF#1, mouse, in vivo, 4 h)","response comment (adverse sign observed) (mice (rotarod test); mice, i.p., 300 mg/kg)"
"Cl.O=C(CN1CCOCC1)Nc1cccc(C(F)(F)F)c1 [Compound 24, 2-Morpholino-N-[3-(trifluoromethyl)phenyl]acetamide monohydrochloride]",> 300 mg/kg,> 300 mg/kg,100 mg/kg,> 300 mg/kg,100%,50%,75%,4/4,2/4,3/4,0/4,0/4,100 mg/kg,100 mg/kg,–,–,–
"Cl.O=C(CN1CCN(c2ccc(F)cc2)CC1)Nc1cccc(C(F)(F)F)c1 [Compound 19, 2-[4-(4-Fluorophenyl)piperazin-1-yl]-N-[3-(trifluoromethyl)phenyl]acetamide monohydrochloride]",> 300 mg/kg,> 300 mg/kg,300 mg/kg,100 mg/kg,–,–,–,0/4,0/4,0/4,0/4,1/4,300 mg/kg,300 mg/kg,25%,–,–
"Cl.Cl.O=C(CN1CCN(CCO)CC1)Nc1cccc(C(F)(F)F)c1 [Compound 23, 2-[4-(2-Hydroxyethyl)piperazin-1-yl]-N-[3-(trifluoromethyl)phenyl]acetamide dihydrochloride]",> 300 mg/kg,> 300 mg/kg,300 mg/kg,300 mg/kg,–,–,–,–,–,–,–,–,300 mg/kg,–,–,–,–
"O=C(CN1CCN(c2ccccc2)CC1)Nc1cccc(C(F)(F)F)c1 [Compound 14, 2-(4-Phenylpiperazin-1-yl)-N-[3-(trifluoromethyl)phenyl]acetamide]",> 300 mg/kg,> 300 mg/kg,> 300 mg/kg,100 mg/kg,–,–,–,–,–,–,–,–,300^Z mg/kg,300 mg/kg,–,300 mg/kg,respiratory depression
